This is an account of results in publication PMC10385824, “Antiproliferative and Tubulin-Destabilising Effects of 3-(Prop-1-en-2-yl)azetidin-2-Ones and Related Compounds in MCF-7 and MDA-MB-231 Breast Cancer Cells” (Pharmaceuticals, 2023).

Test system in the first data set: not given
Test: not given
Details: not given
As a reminder, the melting point is the temperature, or range, at which the solid turns liquid. Take `COC(=O)C1=C(C(=O)OC)C(C2C(=O)N(c3cc(OC)c(OC)c(OC)c3)C2c2cccc3ccccc23)CC=C1` (single isomer, unassigned) [22a, Dimethyl-6-(1-(3,4,5-trimethoxyphenyl)-2-(naphthalen-1-yl)-4-oxoazetidin-3-yl)cyclohexa-1,3-diene-1,2-dicarboxylate]: the melting point fell in the range of 120 to 122 °C. On to `C=C(C)C1C(=O)N(c2cc(OC)c(OC)c(OC)c2)C1c1ccc([N+](=O)[O-])cc1` (stereo not shown) [9a, 4-(4-Nitrophenyl)-1-(3,4,5-trimethoxyphenyl)-3-(prop-1-en-2-yl)azetidin-2-one], for which the melting point was 129 to 130 °C. Compound `C=C(C)C1C(=O)N(c2cc(OC)c(OC)c(OC)c2)C1c1ccc(F)cc1` (stereo not shown) [9d, 4-(4-Fluorophenyl)-1-(3,4,5-trimethoxyphenyl)-3-(prop-1-en-2-yl)azetidin-2-one] registered a melting point of 99 to 100 °C. As for `C=C(C)C1C(=O)N(c2cc(OC)c(OC)c(OC)c2)C1c1ccc(OCCCC)cc1` (stereo not shown) [9j, 4-(4-Butoxyphenyl)-1-(3,4,5-trimethoxyphenyl)-3-(prop-1-en-2-yl)azetidine-2-one], the melting point fell in the range of 55 to 57 °C. Same read-out and setting: in the case of `C=C(C)C1C(=O)N(c2cc(OC)c(OC)c(OC)c2)C1c1ccc(Oc2ccccc2)cc1` (stereo not shown) [9k, 4-(4-Phenoxyphenyl)-1-(3,4,5-trimethoxyphenyl)-3-(prop-1-en-2-yl)azetidin-2-one] it was 126 to 127 °C; in that of `C=C(C)C1C(=O)N(c2ccccc2)C1c1ccc(OC)cc1` (stereo not shown) [9x, 4-(4-Methoxyphenyl)-1-phenyl-3-(prop-1-en-2-yl)azetidin-2-one], 104 to 105 °C.

The test system of a further data set is MCF-7 human breast cancer cells. The data set is described as follows: cells. The following applies: MCF7.
Protocol: All biochemical assays were performed in triplicate for the determination of mean values reported. The human breast carcinoma cell line MCF-7 was purchased from the European Collection of Animal Cell Cultures (ECACC) and was cultured in Eagle’s minimum essential medium with 10% fetal bovine serum, 2 mM L-glutamine and 100 μg/mL penicillin/streptomycin. The medium was supplemented with 1% non-essential amino acids. […] All cells were sub-cultured 3 times/week by trypsinisation.
Cells were seeded at a density of 5 × 10^3 cells/well (MCF-7) in triplicate in 96-well plates. […] Cell proliferation for MCF-7 and MDA-MB-231 cells was analysed using the Alamar Blue assay (Invitrogen Corp.). […] Experiments were performed in triplicate on at least three separate occasions.
The compound `C=C(C)C1C(=O)N(c2cc(OC)c(OC)c(OC)c2)C1c1ccc(OC)c([N+](=O)[O-])c1` (stereo not shown) [9r, 4-(4-Methoxy-3-nitrophenyl)-1-(3,4,5-trimethoxyphenyl)-3-(prop-1-en-2-yl)azetidin-2-one] registered an IC50 of 0.01 to 0.033 µM.

Still in this data set, the particulars now being: MCF7, 72 h, MCF-7, Figure 2, 72 h.
`C=C(C)C1C(=O)N(c2cc(OC)c(OC)c(OC)c2)C1c1cccc2ccccc12` (stereo not shown) [9m, 4-Naphthalen-1-yl-1-(3,4,5-trimethoxyphenyl)-3-(prop-1-en-2-yl)azetidin-2-one] registered an IC50 of 8.07 µM. The same measure, in the same setting: then `C=C(C)C1C(=O)N(c2cc(OC)c(OC)c(OC)c2)C1c1ccc(OC)c(NC(=O)C(N)Cc2ccccc2)c1` (stereo not shown) [13a, 2-Amino-N-(2-methoxy-5-(1-(3,4,5-trimethoxyphenyl)-4-oxo-3-(prop-1-en-2-yl)azetidin-2-yl)phenyl)-3-phenylpropanamide], with 4.92 µM.

Still in this data set, the particulars now being: MCF7, 72 h, read-out: Antiproliferative Activity IC50, MCF-7, 72 h, eight concentrations 1–50 μM, mean ± SEM, Table 2.
With `C=C(C)C1C(=O)N(c2cc(OC)c(OC)c(OC)c2)C1c1ccc([N+](=O)[O-])cc1` (stereo not shown) [9a, 4-(4-Nitrophenyl)-1-(3,4,5-trimethoxyphenyl)-3-(prop-1-en-2-yl)azetidin-2-one], the IC50 came out at 4.96 ± 0.69 µM.

As for `C=C(C)C1C(=O)N(c2cc(OC)c(OC)c(OC)c2)C1c1ccc(F)cc1` (stereo not shown) [9d, 4-(4-Fluorophenyl)-1-(3,4,5-trimethoxyphenyl)-3-(prop-1-en-2-yl)azetidin-2-one], the IC50 came to 0.691 ± 0.1 µM. For `C=C(C)C1C(=O)N(c2cc(OC)c(OC)c(OC)c2)C1c1cccc2ccccc12` (stereo not shown) [9m, 4-Naphthalen-1-yl-1-(3,4,5-trimethoxyphenyl)-3-(prop-1-en-2-yl)azetidin-2-one], the IC50 came to 44.1 ± 2.57 µM.

Staying with this data set, now noted: MCF7, 72 h, read-out: Antiproliferative Activity IC50, MCF-7, 72 h, eight concentrations (0.001–50 mM [sic]), mean ± SEM, Table 5.
On to `COc1ccc(C2C(CC=Cc3ccccc3)C(=O)N2c2cc(OC)c(OC)c(OC)c2)cc1O` (stereo not shown) [17b, 3-Cinnamyl-4-(3-hydroxy-4-methoxyphenyl)-1-(3,4,5-trimethoxyphenyl)azetidin-2-one], for which the IC50 was determined as 1.09 ± 0.08 µM. On the same count and under the same terms, in the case of `O=C1C(CC=Cc2ccccc2)C(c2ccccc2)N1c1ccccc1` (stereo not shown) [17c, 3-Cinnamyl-1,4-diphenylazetidin-2-one] it was 75.4 ± 8.12 µM; in that of `COc1ccc(C2C(CC=Cc3ccc(C(F)(F)F)cc3)C(=O)N2c2cc(OC)c(OC)c(OC)c2)cc1` (stereo not shown) [17d, 3-(4-(Trifluoromethyl)cinnamyl)-4-(4-methoxyphenyl)-1-(3,4,5-trimethoxyphenyl) azetidin-2-one], 49.5 ± 5.23 µM. On the same count and under the same terms, then `COc1ccc(C2C(CC=Cc3ccc(C(F)(F)F)cc3)C(=O)N2c2ccccc2)cc1` (stereo not shown) [17e, 3-(4-(Trifluoromethyl)cinnamyl)-4-(4-methoxyphenyl)-1-phenylazetidin-2-one], with 4.76 ± 0.56 µM. Same read-out and setting: then `CCOC(=O)CC1C(=O)N(c2cc(OC)c(OC)c(OC)c2)C1c1ccc(OC)c(O)c1` (stereo not shown) [17g, Ethyl-2-(2-(3-hydroxy-4-methoxyphenyl)-1-(3,4,5-trimethoxyphenyl)-4-oxoazetidin-3-yl)acetate], with 0.075 ± 0.01 µM; and `COc1ccc(C2C(C=Cc3ccc(C(F)(F)F)cc3)C(=O)N2c2cc(OC)c(OC)c(OC)c2)cc1` (stereo not shown) [compound 19, 3-(4-(Trifluoromethyl)styryl)-1-(3,4,5-trimethoxyphenyl)-4-(4-methoxyphenyl)azetidin-2-one], with 7.71 ± 0.78 µM; and `COc1cc(N2C(=O)C(CC3CO3)C2c2ccccc2)cc(OC)c1OC` (stereo not shown) [compound 20, 1-(3,4,5-Trimethoxyphenyl)-3-((oxiran-2-yl)methyl)-4-phenylazetidin-2-one], with 51.5 ± 5.46 µM.

The data set is the same for the next values; noted with them: MCF7, read-out: Antiproliferative Activity IC50.
Turning to `C=CCC1C(=O)N(c2cc(OC)c(OC)c(OC)c2)C1c1ccc(OC)c(OP(=O)(O)O)c1` (stereo not shown) [15c, 5-(3-Allyl-1-(3,4,5-trimethoxyphenyl)-4-oxoazetidin-2-yl)-2-methoxyphenyl dihydrogen phosphate], the IC50 worked out at 0.094 ± 0.015 µM. With `CCCC1C(=O)N(c2cc(OC)c(OC)c(OC)c2)C1c1ccc(OC)c(OP(=O)(O)O)c1` (stereo not shown) [15d, 2-Methoxy-5-(1-(3,4,5-trimethoxyphenyl)-4-oxo-3-propylazetidin-2-yl)phenyl dihydrogen phosphate], the IC50 is 0.032 ± 0.005 µM.

The same data set, now with this note: MCF7, read-out: Antiproliferative Activity IC50, MCF-7, eight concentrations 0.001–50 μM, mean ± SEM, Table 3.
Take `C=CCC1C(=O)N(c2cc(OC)c(OC)c(OC)c2)C1c1ccc([N+](=O)[O-])cc1` (stereo not shown) [10a, 3-Allyl-4-(4-nitrophenyl)-1-(3,4,5-trimethoxyphenyl)azetidin-2-one]: the IC50 came out at 4.13 ± 0.62 µM. With `C=CCC1C(=O)N(c2cc(OC)c(OC)c(OC)c2)C1c1ccc(Cl)cc1` (stereo not shown) [10b, 3-Allyl-4-(4-chlorophenyl)-1-(3,4,5-trimethoxyphenyl)azetidin-2-one], the IC50 was found to be 0.621 ± 0.095 µM. Still for that read-out and setting: then `C=CCC1C(=O)N(c2cc(OC)c(OC)c(OC)c2)C1c1ccc(Br)cc1` (stereo not shown) [10c, 3-Allyl-4-(4-bromophenyl)-1-(3,4,5-trimethoxyphenyl)azetidin-2-one], with 0.944 ± 0.1 µM; and `C=CCC1C(=O)N(c2cc(OC)c(OC)c(OC)c2)C1c1ccc(N(C)C)cc1` (stereo not shown) [10e, 3-Allyl-4-(4-dimethylaminophenyl)-1-(3,4,5-trimethoxyphenyl)azetidin-2-one], with 4.46 ± 0.11 µM. Take `C=CCC1C(=O)N(c2cc(OC)c(OC)c(OC)c2)C1c1ccccc1` (stereo not shown) [10f, 3-Allyl-4-phenyl-1-(3,4,5-trimethoxyphenyl)azetidin-2-one]: the IC50 came to 9.61 ± 1.2 µM.

On to `C=CCC1C(=O)N(c2cc(OC)c(OC)c(OC)c2)C1c1ccc(OCC)cc1` (stereo not shown) [10i, 3-Allyl-4-(4-ethoxyphenyl)-1-(3,4,5-trimethoxyphenyl)azetidin-2-one], for which the IC50 came to 0.091 ± 0.01 µM. The same measure, in the same setting: then `C=CCC1C(=O)N(c2cc(OC)c(OC)c(OC)c2)C1c1ccc(OCCCC)cc1` (stereo not shown) [10j, 3-Allyl-4-(4-butoxyphenyl)-1-(3,4,5-trimethoxyphenyl)azetidin-2-one], with 17.4 ± 1.23 µM; and `C=CCC1C(=O)N(c2cc(OC)c(OC)c(OC)c2)C1c1ccc(Oc2ccccc2)cc1` (stereo not shown) [10k, 3-Allyl-4-(4-phenoxyphenyl)-1-(3,4,5-trimethoxyphenyl)azetidin-2-one], with 7.49 ± 0.6 µM; and `C=CCC1C(=O)N(c2cc(OC)c(OC)c(OC)c2)C1c1ccc2ccccc2c1` (stereo not shown) [10n, 3-Allyl-4-naphthalen-2-yl-1-(3,4,5-trimethoxyphenyl)azetidin-2-one], with 0.318 ± 0.03 µM. Still for that read-out and setting: then `C=CCC1C(=O)N(c2ccccc2)C1c1ccc(OC)cc1` (stereo not shown) [10s, 3-Allyl-4-(4-Methoxyphenyl)-1-phenylazetidin-2-one], with 84.5 ± 8.1 µM; and `C=CCC1C(=O)N(c2cc(OC)c(OC)c(OC)c2)C1c1ccc(OC)c(NC(=O)C(N)Cc2ccccc2)c1` (stereo not shown) [13b, N-(5-(3-Allyl-1-(3,4,5-trimethoxyphenyl)-4-oxoazetidin-2-yl)-2-methoxyphenyl)-2-amino-3-phenylpropanamide], with 10.7 ± 1.94 µM; and `C=CCC1C(=O)N(c2cc(OC)c(OC)c(OC)c2)C1c1ccc(OC)c(NC(=O)C(N)C(C)C)c1` (stereo not shown) [13c, N-(5-(3-Allyl-1-(3,4,5-trimethoxyphenyl)-4-oxoazetidin-2-yl)-2-methoxyphenyl)-2-amino-3-methylbutanamide], with 13 ± 1.25 µM.

Staying with this data set, now noted: MCF7, read-out: Antiproliferative Activity IC50, MCF-7, eight concentrations 0.001–50 μM, mean ± SEM, Table 4.
Regarding `C=C/C=C/C1C(=O)N(c2cc(OC)c(OC)c(OC)c2)C1c1ccc(N(C)C)cc1` (stereo not shown) [11e, (E)-3-(Buta-1,3-dien-1-yl)-4-(4-dimethylaminophenyl)-1-(3,4,5-trimethoxyphenyl)azetidin-2-one], the IC50 amounted to 1.93 ± 0.34 µM. `C=C/C=C/C1C(=O)N(c2cc(OC)c(OC)c(OC)c2)C1c1ccc(OCCCC)cc1` (stereo not shown) [11j, (E)-3-(Buta-1,3-dien-1-yl)-4-(4-butoxyphenyl)-1-(3,4,5-trimethoxyphenyl)-azetidin-2-one]: the IC50 was 182 ± 19.4 µM. On the same count and under the same terms, in the case of `C=C/C=C/C1C(=O)N(c2cc(OC)c(OC)c(OC)c2)C1c1ccc(OCc2ccccc2)cc1` (stereo not shown) [11l, (E)-3-(Buta-1,3-dien-1-yl)-4-(4-benzyloxyphenyl)-1-(3,4,5-trimethoxyphenyl)azetidin-2-one] it was 145 ± 11.7 µM; in that of `C=C/C=C/C1C(=O)N(c2cc(OC)c(OC)c(OC)c2)C1c1ccc2ccccc2c1` (stereo not shown) [11n, (E)-3-(Buta-1,3-dien-1-yl)-4-(naphthalen-2-yl)-1-(3,4,5-trimethoxyphenyl)azetidin-2-one], 0.296 ± 0.05 µM. Still for that read-out and setting: then `C=C/C=C/C1C(=O)N(c2ccccc2)C1c1ccc(OC)cc1` (stereo not shown) [11s, (E)-3-(Buta-1,3-dien-1-yl)-4-(4-methoxyphenyl)-1-phenylazetidin-2-one], with 15.2 ± 1.41 µM; and `C=C/C=C/C1C(=O)N(c2cc(OC)c(OC)c(OC)c2)C1c1ccc(OC)c(NC(=O)C(N)C(C)C)c1` (stereo not shown) [13d, 2-Amino-N-(5-(3-((E)-buta-1,3-dienyl)-1-(3,4,5-trimethoxyphenyl)-4-oxoazetidin-2-yl)-2-methoxyphenyl)-3-methylbutanamide], with 24.2 ± 3.91 µM; and `C=CC=CC1C(=O)N(c2cc(OC)c(OC)c(OC)c2)C1c1ccc(OC)c(NC(=O)CN)c1` (stereo not shown) [13e, 2-Amino-N-(5-(3-(buta-1,3-dienyl)-1-(3,4,5-trimethoxyphenyl)-4-oxoazetidin-2-yl)-2-methoxyphenyl)acetamide], with 9.36 ± 1.21 µM.
